“Also recorded” adds a separate entry of the source. Read-outs that look alike come from different tables or passages of the source.
Tests used:
[1] = system: MM3MG cells stably expressing HER2d16; settings: MM3MG-HER2d16 s.c. in SCID-Beige mice; for effect of lapatinib on growth of HER2d16 tumors: lapatinib oral gavage 75 mg/kg, 5 times a week, from day 8, FIG. 7, 75 mg/kg
Method: (§1) MM3MG cells stably expressing the indicated genes were implanted subcutaneously into SCID-Beige mice (100,000 per mouse in PBS) at days 0. Mice were treated weekly with T-DM1 via tail vein injection (200 μg/mouse) beginning at day 10. Tumor growth was measured by calipers at the indicated days (N=5, bars represent SE).
as §1, with “lapatinib by oral gavage (75 mg/kg/5 days week)” for “T-DM1 via tail vein injection (200 μg/mouse) beginning”, “8.” for “10.”
(§2) Experiments using BALB/c, and SCID-Beige mice (obtained from Jackson Labs) were done in accordance with Duke Institutional Animal Care and Use Committee-approved protocols. For tumor vaccine experiments, Human HER2-transgenic mice (kindly provided by Dr. Wei-Zen Wei, Wayne State University, Detroit, MI^4) were crossed with BALB/c mice (Jackson Labs) to permit implantation of MM3MG-HER2d16 tumors and genotyped by PCR as previously described^5. In immnodeficient animals, stable cells were injected s.c. into the flank of SCID-beige mice (at indicated cells/animal) and measured as indicated. Tumor measurements were made using calipers and volumes calculated using the formula [v=width×width×(length/2)] whereas statistical differences were calculated using a mixed effects regression model using autoregressive covariance. In treatment experiments, T-DM1 was weekly delivered via tail vein (200 μg/mouse) while Lapatinib was given by oral gavage (5 times a week, 75 mg/kg).

HER2-WT MM3MG = settings: MM3MG-HER2-WT s.c. in SCID-Beige mice; T-DM1 weekly via tail vein, 200 μg/mouse, from day 10; FIG. 6
Method: as §1, §2

Molecule	effect of lapatinib on growth of HER2d16 tumors [1]	effect of lapatinib on growth of HER2d16 tumors ([1]; listed as lapatinib)	effect of T-DM1 on growth of HER2d16 tumors ([1]; T-DM1 weekly via tail vein, 200 μg/mouse, from day 10, FIG. 6)	effect of T-DM1 on growth of HER2-WT MM3MG tumors (HER2-WT MM3MG)
CS(=O)(=O)CCNCc1ccc(-c2ccc3ncnc(Nc4ccc(OCc5cccc(F)c5)c(Cl)c4)c3c2)o1 [Lapatinib]	only had a minor effect	resistant		
Trastuzumab-DM1 [T-DM1]			more resistant; also recorded: only weakly impacted	significantly suppressed
